Test results: patent US20080206149A1, “METHOD, DYE AND MEDICAMENT FOR STAINING THE INTERNAL LIMITING MEMBRANE, EPIRETINAL MEMBRANE, THE VITREOUS AND/OR THE CAPSULE OF AN EYE” (LUDWIG-MAXIMILIANS-UNIVERSITAT MUNCHEN, priority 2005, published 2008)

Tests used:
[1] = test system: vitreous and posterior hyaloid; experiment: Vitrectomy for idiopathic macular hole (Example 3); format: in vivo, humans
Description: This study was approved by the local ethics committee and Institutional Review Board (IRB) and written informed consent was obtained from all patients. Six consecutive patients with idiopathic macular hole, 3 males and 3 females with a mean age of 68 were included. Holes were graded as stage 2 (n=3), stage 3 (n=2) and stage 4 (n=1). The dye was also used in four patients with retinal detachments, 2 females and 2 males with a mean age of 57 years.
Pre- and postoperatively, all patients underwent a complete clinical examination including measurement of best corrected visual acuity (VA), slit lamp examination, tonometry, and funduscopy using a 78 diopter lens (Volk Optical, Mentor, Ohio, USA). In macular hole patients, we additionally performed optical coherence tomography (OCT) (Stratus-OCT, Carl Zeiss Meditec, Jena, Germany), Goldmann perimetry, multifocal electroretinogram (ERG) and fundus photographs. Patients were seen one day before surgery and then in six weeks intervals. Postoperatively, ERG and Goldmann perimetry were performed at the six weeks follow-up visit and were not repeated if unremarkable.
Bromphenol blue powder was dissolved and diluted using BSS plus and sterilized using a 0.22 μm syringe filter. A final dye concentration of 0.2% was then injected into the eye. Vitrectomy first consisted of a core vitrectomy, followed by vitreous removal in the periphery in the area of the sclerotomy sites by indentation of the globe using a squint hook. Then an attempt was made to induce a posterior vitreous detachment by applying suction at the optic nerve head.
The dye was applied as follows: During pars plana vitrectomy for a macular hole a fluid air-exchange was performed prior to dye injection to achieve a maximum dye concentration on the retinal surface. Then, a few drops of the dye were injected over the posterior pole and the globe was gently moved to allow for an adequate dye distribution (FIG. 8A). This was followed by removal of excessive dye by irrigation after one minute. Then epiretinal tissue was removed if present and an attempt to peel the ILM using an end-gripping forceps was made in selected cases. Surgery was completed by fluid-air exchange and intraocular gas tamponade (hexafluoroethane (C2F6)) as previously described (Haritoglou C., Gandorfer A., Gass C. A., et al., “Indocyanine green-assisted peeling of the internal limiting membrane in macular hole surgery affects visual outcome: a clinicopathologic correlation”, Am J. Ophthalmol 2002; 134: 836-41). During surgery for retinal detachment the dye was applied after induction of a PVD and injection of approximately 1.5 ml heavy liquid (PFCL, perfluorocarbon, Fluoron GmbH, Neu-Ulm, Germany) and fluid-air exchange without removing PFCL (FIG. 8B). Using this approach, we obtained not only a higher dye concentration in the anterior segment of the eye as the dye can not be further diluted by PFCL, but we could also prevent an uncontrolled distribution especially in the subretinal space and excessive contact with the lens capsule, which may result in an unwanted staining effect. In addition we obtained a staining of the vitreous in the periphery as intended. C2F6 was used as an intraocular tamponade at the end of surgery. The staining characteristics were then evaluated by the surgeon.

vitreous [2] = experiment: Staining of the vitreous during pars plana vitrectomy in porcine eyes; format: in vivo; conditions: graded by two examiners
Experimental: All dyes were dissolved and diluted using balanced salt solution (BSS plus; Alcon Laboratories Inc., Fort Worth, Tex).
Experiments were performed in animals (porcine eyes) and humans after approval of the local ethics committee had been obtained. All experiments were performed in compliance with the Declaration of Helsinki.
Ophthalmic surgery consisted of a standard pars plana vitrectomy. First, the transparent vitreous was removed as completely as possible. Then fluid air exchange was performed in order to avoid an uncontrolled distribution of the dye in the vitreous cavity. The dye was then injected into the air filled globe. After a period of one minute, the dye was washed out by irrigation with BSS. This was followed by an injection of the dye in concentrations from 0.2% to 2%. The staining of the vitreous was graded by two examiners who also performed the surgical procedures.

vitreous [3] = experiment: Staining of the vitreous during vitrectomy in humans using BPB (Example 1); format: in vivo; conditions: 0.2%
Experimental: All patients (n=9) gave their written informed consent before surgery. […] A standard three port pars plana vitrectomy was performed. First, the transparent vitreous was removed as thoroughly as possible using the vitrectomy probe. Then fluid air exchange was performed and a few drops of the dye (BPB, 0.2%) were injected. After one minute, the dye was washed out by irrigation.

[4] = test system: anterior segment of the eye; conditions: animals, dye exposure of seven days, cited from earlier work
primary RPE cells = experiment: Life-dead assay (propidium iodide / Hoechst 33342), primary RPE cells; format: cell-based; conditions: primary RPE cells, 0.2% and 0.02% dye, 24 hours after treatment, compared to BSS plus
Experimental: Invest Ophthalmol Vis Sci 2002; 43: 3575-82.
Confluent RPE and ARPE-19 cells were prepared and treated as described above. Cell viability was quantified based on a two-color fluorescence assay in which the nuclei of nonviable cells appear red because of staining by the membrane-impermeable dye propidium iodide (Sigma), whereas the nuclei of all cells were stained with the membrane-permeable dye Hoechst 33342 (Intergen, Purchase, N.Y.). […] For evaluation of cell viability, cells were washed in PBS and incubated with 2.0 μg/mL propidium iodide and 1.0 μg/mL Hoechst 33342 for 20 minutes at 37° C. Subsequently, cells were analyzed with an epifluorescence microscope (Axioskop; Zeiss, Göttingen, Germany). The labeled nuclei were then counted in fluorescence photomicrographs, and dead cells were expressed as a percentage of total nuclei in the field. The data are based on counts from three experiments performed in duplicate wells, with three to five documented representative fields per well.

With O=S1(=O)OC(c2cc(Br)c(O)c(Br)c2)(c2cc(Br)c(O)c(Br)c2)c2ccccc21 [Bromophenol blue, Bromophenole blue] the “staining of remnant vitreous in the periphery at the vitreous base” value ([1]; 0.2%, macular hole surgery) was “could be seen in all cases”, the “staining of the retinal surface or the ILM” value ([1]; 0.2%, three cases with complete PVD and no epiretinal membrane) was “no staining of the retinal surface or the ILM” and the “amplitudes in postoperative ERG examinations” value ([1]; in vivo) was “no affection of the amplitudes”. For the same molecule, the “loss of VA” value ([1]; in vivo) was “No loss of VA”, the “peripheral visual field defects indicating dye related toxicity” value ([1]; in vivo) was “nor did we observe peripheral visual field defects” and the “staining of the adherent posterior hyaloid membrane” value ([1]; macular hole patients with incomplete PVD) was “very useful”. For the same molecule, the VA postoperatively ([1]; overall patients) was 20/40, the VA preoperatively ([1]; overall patients) was 20/100 and the macular hole closure ([1]; second operation necessary in one case) was “All macular holes could be closed successfully”. The “staining effect of the vitreous” value (vitreous [2]; dye concentration 0.2%) was “good”, the “staining effect of the vitreous” value (vitreous [2]; dye concentration 2.0%) was “strong” and the “complications of complete removal of the vitreous” value (vitreous [3]; humans) was “without complications”. For the same molecule, the “staining of vitreous remnants adherent to the retinal surface” value (vitreous [3]; washed out after one minute, patients with macular pucker or macular hole) was “bluish staining”, the “clinical examinations: signs of inflammatory responses or toxicity in the anterior segment” value ([4]; also higher dye concentrations) was “did not reveal any signs of inflammatory responses or toxicity” and the “histological abnormalities following enucleation” value [4] was “no histological abnormalities”. The “cell viability, nuclei of nonviable cells labeled with propidium iodide” value (primary RPE cells) was “did not affect cell survival”.
